Laboratory results taken from PubChem BioAssay AID2060890 (Molecular Pharmacology Branch, DTP, NCI, 2025).

System: LG0703-F948-PDC complex spheroid viability
Assay: Anticancer human tumor LG0703-F948-PDC patient-derived lung adenocarcinoma cell line growth inhibition [RAS]
Conditions: for IC50: curve of first compound; for viability, T/C: stronger effect = lower value
In short: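 Multi-cell-type spheroids: tumor cells plus HUVEC endothelial cells and mesenchymal stem cells. RAS-pathway inhibitors were combined with targeted agents, each dosed in half-log steps down from clinical Cmax, or from 10 microM when Cmax was unknown.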

[1] = second compound 0.000949 µM, first compound 0.0316 µM
[2] = second compound 0.000949 µM, first compound 0.1 µM
[3] = second compound 0.000949 µM, first compound 0.316 µM
[4] = second compound 0.000949 µM, first compound 1 µM
[5] = second compound 0.000949 µM, first compound 3.16 µM
[6] = second compound 0.000949 µM, first compound 10 µM
[7] = second compound 0.003 µM, first compound 0.0316 µM
[8] = second compound 0.003 µM, first compound 0.1 µM
[9] = second compound 0.003 µM, first compound 0.316 µM
[10] = second compound 0.003 µM, first compound 1 µM
[11] = second compound 0.003 µM, first compound 3.16 µM
[12] = second compound 0.003 µM, first compound 10 µM
[13] = second compound 0.00949 µM, first compound 0.0316 µM
[14] = second compound 0.00949 µM, first compound 0.1 µM
[15] = second compound 0.00949 µM, first compound 0.316 µM
[16] = second compound 0.00949 µM, first compound 1 µM
[17] = second compound 0.00949 µM, first compound 3.16 µM
[18] = second compound 0.00949 µM, first compound 10 µM
[19] = second compound 0.03 µM, first compound 0.0316 µM
[20] = second compound 0.03 µM, first compound 0.1 µM
[21] = second compound 0.03 µM, first compound 0.316 µM
[22] = second compound 0.03 µM, first compound 1 µM
[23] = second compound 0.03 µM, first compound 3.16 µM
[24] = second compound 0.03 µM, first compound 10 µM
[25] = second compound 0.0949 µM, first compound 0.0316 µM
[26] = second compound 0.0949 µM, first compound 0.1 µM
[27] = second compound 0.0949 µM, first compound 0.316 µM
[28] = second compound 0.0949 µM, first compound 1 µM
[29] = second compound 0.0949 µM, first compound 3.16 µM
[30] = second compound 0.0949 µM, first compound 10 µM
[31] = second compound 0.3 µM, first compound 0.0316 µM
[32] = second compound 0.3 µM, first compound 0.1 µM
[33] = second compound 0.3 µM, first compound 0.316 µM
[34] = second compound 0.3 µM, first compound 1 µM
[35] = second compound 0.3 µM, first compound 3.16 µM
[36] = second compound 0.3 µM, first compound 10 µM
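Further: spheroids exposed to agents for 7 days.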
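Wherever viability, T/C is given: 100% = DMSO vehicle wells.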

C[C@@H](NC(=O)c1ncnc(N)c1Cl)c1ncc(C(=O)Nc2cc(C(F)(F)F)c(Cl)cn2)s1 + CCn1c(-c2cc(N3CCN(C)CC3)cnc2C(C)OC)c2c3cc(ccc31)-c1csc(n1)CC(NC(=O)C1CC1C)C(=O)N1CCCC(N1)C(=O)OCC(C)(C)C2
IC50 (second compound 0.000949 µM): > 10000 nM
IC50 (second compound 0.003 µM): > 10000 nM
IC50 (second compound 0.00949 µM): < 31.6 nM
IC50 (second compound 0.03 µM): < 31.6 nM
IC50 (second compound 0.0949 µM): < 31.6 nM
IC50 (second compound 0.3 µM): < 31.6 nM
viability, T/C [1]: 74.7%
viability, T/C [2]: 78.6%
viability, T/C [3]: 79.2%
viability, T/C [4]: 76.4%
viability, T/C [5]: 83.9%
viability, T/C [6]: 75.6%
viability, T/C [7]: 54.3%
viability, T/C [8]: 46.9%
viability, T/C [9]: 52.8%
viability, T/C [10]: 65.1%
viability, T/C [11]: 55.5%
viability, T/C [12]: 68.9%
viability, T/C [13]: 31.6%
viability, T/C [14]: 28.8%
viability, T/C [15]: 28.1%
viability, T/C [16]: 30.3%
viability, T/C [17]: 33.8%
viability, T/C [18]: 39.8%
viability, T/C [19]: 17.5%
viability, T/C [20]: 17.6%
viability, T/C [21]: 16.1%
viability, T/C [22]: 17%
viability, T/C [23]: 21.2%
viability, T/C [24]: 21.5%
viability, T/C [25]: 15.8%
viability, T/C [26]: 9.99%
viability, T/C [27]: 11.8%
viability, T/C [28]: 13.7%
viability, T/C [29]: 15.9%
viability, T/C [30]: 13.7%
viability, T/C [31]: 11.7%
viability, T/C [32]: 11.5%
viability, T/C [33]: 13.1%
viability, T/C [34]: 9.77%
viability, T/C [35]: 14.9%
viability, T/C [36]: 15.3%

NC1c2ccccc2OC12CCN(c1cnc3c(N4CCCc5ncccc54)n[nH]c3n1)CC2 (centres undefined) + CCn1c(-c2cccnc2C(C)OC)c2c3cc(ccc31)N1CCOC(CC(NC(=O)C(C(C)C)N(C)C(=O)C3(F)CCN(C(=O)C#CC(C)(C)N(C)C)CC3)C(=O)N3CCCC(N3)C(=O)OCC(C)(C)C2)C1
IC50 (second compound 0.000949 µM): 52.3 nM
IC50 (second compound 0.003 µM): 46.2 nM
IC50 (second compound 0.00949 µM): 47.9 nM
IC50 (second compound 0.03 µM): 38.7 nM
IC50 (second compound 0.0949 µM): < 31.6 nM
IC50 (second compound 0.3 µM): < 31.6 nM
viability, T/C [1]: 55.4%
viability, T/C [2]: 43.5%
viability, T/C [3]: 22.8%
viability, T/C [4]: 12.4%
viability, T/C [5]: 4.73%
viability, T/C [6]: 2.85%
viability, T/C [7]: 57.1%
viability, T/C [8]: 35.3%
viability, T/C [9]: 21.8%
viability, T/C [10]: 10.3%
viability, T/C [11]: 6.54%
viability, T/C [12]: 2.52%
viability, T/C [13]: 59.1%
viability, T/C [14]: 33.1%
viability, T/C [15]: 20.6%
viability, T/C [16]: 8.74%
viability, T/C [17]: 5.35%
viability, T/C [18]: 2.44%
viability, T/C [19]: 53.6%
viability, T/C [20]: 33.8%
viability, T/C [21]: 18.5%
viability, T/C [22]: 10.7%
viability, T/C [23]: 4.93%
viability, T/C [24]: 1.68%
viability, T/C [25]: 42%
viability, T/C [26]: 27.2%
viability, T/C [27]: 12%
viability, T/C [28]: 5.4%
viability, T/C [29]: 2.95%
viability, T/C [30]: 1.32%
viability, T/C [31]: 25.2%
viability, T/C [32]: 10.4%
viability, T/C [33]: 7.14%
viability, T/C [34]: 2.48%
viability, T/C [35]: 2.04%
viability, T/C [36]: 1.58%
